One series deals with T1, IKKα (Homo sapiens, UniProt O15111).
T1 sequence (O15111 1-745): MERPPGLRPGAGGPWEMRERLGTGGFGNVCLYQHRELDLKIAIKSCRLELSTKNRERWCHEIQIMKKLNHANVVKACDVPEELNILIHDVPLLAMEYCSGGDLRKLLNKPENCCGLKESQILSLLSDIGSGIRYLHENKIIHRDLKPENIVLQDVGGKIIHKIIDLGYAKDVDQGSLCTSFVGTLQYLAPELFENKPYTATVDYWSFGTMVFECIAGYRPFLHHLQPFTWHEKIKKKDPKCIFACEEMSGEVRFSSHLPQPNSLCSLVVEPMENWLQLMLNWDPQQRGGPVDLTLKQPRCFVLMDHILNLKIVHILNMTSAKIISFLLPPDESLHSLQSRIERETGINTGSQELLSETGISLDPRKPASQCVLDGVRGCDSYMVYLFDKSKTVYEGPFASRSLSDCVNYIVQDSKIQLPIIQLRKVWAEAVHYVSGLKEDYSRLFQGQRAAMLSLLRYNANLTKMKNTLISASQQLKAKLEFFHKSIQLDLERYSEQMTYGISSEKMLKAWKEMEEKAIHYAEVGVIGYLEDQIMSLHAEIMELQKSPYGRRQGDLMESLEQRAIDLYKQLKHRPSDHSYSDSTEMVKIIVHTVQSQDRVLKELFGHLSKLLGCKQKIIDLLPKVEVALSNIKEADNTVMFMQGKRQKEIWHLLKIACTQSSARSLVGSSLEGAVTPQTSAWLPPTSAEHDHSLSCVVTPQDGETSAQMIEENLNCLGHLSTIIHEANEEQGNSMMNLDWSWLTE
As to the kind of experiment: DELFIA kinase assay, IKKα. To be noted: DELFIA kinase assay. It is filed as biochemical. From the text: To examine the pyrrolo[2,3-b]pyridines as an alternative scaffold, we adopted the AIPP core because it had similar dimensions to SU909 (1), with HBD/HBA motifs positioned at the scaffold extremities to interact with both the hinge region and the G-loop wall of IKKα, a rationale we had previously proposed as the basis for imparting selectivity. A preliminary set of AIPP derivatives was designed and synthesised to explore its utility as an IKK-targeting scaffold, whilst incorporating additional functionality through which to introduce selectivity for the IKKα isoform (2–4; Figure 3). This was achieved by initially adopting two different approaches: either appending a hydrophobic moiety to the pyrrolo[2,3-b]pyridine motif as a fused form to afford the tricyclic derivatives 2 and 3, or as a phenyl substituent to introduce flexibility with respect to the central pyrrolo[2,3-b]pyridine moiety in 4. When assessed against IKKα and IKKβ using our in-house DELFIA kinase assay […] The pyrrolo[2,3-b]pyridine was bound to the hinge region in the classical HBA/HBD motif with the GK+3 amide backbone, whilst the aminoindazole projected towards the top of the pocket to interact with the G-loop (Figure 4A). […] In both isoforms, the 2-phenyl moiety protruded away from the hinge towards the exposed solvent area.
(§1) IKKα and IKKβ inhibitory activity were determined using a dissociation-enhanced ligand fluorescent immunoassay (DELFIA) based on the protocol of HTScan™ IKKβ Kinase Assay (Cell Signaling Technology, Danvers, MA, USA) as described in [24].

The target in a further series is T2, IKKβ (Homo sapiens, UniProt O14920).
T2 sequence (O14920 1-756): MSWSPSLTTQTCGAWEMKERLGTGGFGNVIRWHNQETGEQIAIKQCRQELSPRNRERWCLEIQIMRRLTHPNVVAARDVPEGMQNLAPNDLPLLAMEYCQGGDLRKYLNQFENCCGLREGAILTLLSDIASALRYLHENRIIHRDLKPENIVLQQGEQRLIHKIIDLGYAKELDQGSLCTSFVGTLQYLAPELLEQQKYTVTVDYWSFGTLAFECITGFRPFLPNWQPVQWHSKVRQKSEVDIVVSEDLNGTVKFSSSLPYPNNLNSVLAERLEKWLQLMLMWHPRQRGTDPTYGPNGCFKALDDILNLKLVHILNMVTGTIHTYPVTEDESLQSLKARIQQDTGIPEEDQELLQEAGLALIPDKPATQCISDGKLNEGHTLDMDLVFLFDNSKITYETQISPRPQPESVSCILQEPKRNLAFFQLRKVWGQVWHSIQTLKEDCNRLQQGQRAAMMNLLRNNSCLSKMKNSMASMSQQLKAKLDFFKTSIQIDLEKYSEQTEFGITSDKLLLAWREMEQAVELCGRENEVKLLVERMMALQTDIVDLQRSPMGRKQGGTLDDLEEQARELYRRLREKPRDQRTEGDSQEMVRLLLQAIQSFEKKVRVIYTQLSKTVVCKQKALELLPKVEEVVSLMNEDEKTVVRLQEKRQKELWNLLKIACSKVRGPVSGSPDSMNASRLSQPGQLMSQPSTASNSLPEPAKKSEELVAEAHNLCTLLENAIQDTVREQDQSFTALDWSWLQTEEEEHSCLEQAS
Put plainly: DELFIA kinase assay, IKKβ. It is filed as biochemical. On the procedure: as §1

The next series can be described thus: Turbidimetric solubility. It is filed as physicochemical. The following applies: pH 7.4, aqueous buffer, kinetic from dmso stock, 0.01 M phosphate-buffered saline pH7.4. On the procedure:
Pharmacokinetic studies were contracted to Sygnature Discovery Limited. Turbidimetric Solubility was determined by diluting compound solutions (1 μM, 3 μM, 10 μM, 30 μM, 100 μM) prepared in DMSO into 0.01 M phosphate-buffered saline pH7.4. Turbidimetry was used as the endpoint by measuring absorbance at 620 nm.

Converted amounts (≈) assume the structure as drawn. Read-outs that look alike come from different tables or passages of the source.

In general, Ki refers to the dissociation constant of the complex between target and ligand, obtained from inhibition or displacement. One may read the solubility as the concentration that dissolves in the medium under given conditions.

As to `Nc1n[nH]c2ccc(-c3ccnc4[nH]c5c(c34)CCCC5)cc12` [Compound 2, 5-(6,7,8,9-Tetrahydro-5H-pyrido[2,3-b]indol-4-yl)-1H-indazol-3-amine], the figures for the Ki on IKKα and at IKKβ (read-out: Ki Values IKKβ) were 2 nM and 77 nM, respectively.

As to `Nc1n[nH]c2ccc(-c3ccnc4[nH]c5ccccc5c34)cc12` [Compound 3], the Ki was 3 nM at IKKα and 5 nM on IKKβ (read-out: Ki Values IKKβ).

Consider `Nc1n[nH]c2ccc(-c3ccnc4[nH]c(-c5ccccc5O)cc34)cc12` [Compound 5a], for which the Ki on IKKα was found to be 4 nM; on IKKβ (read-out: Ki Values IKKβ), 42 nM.

For `Nc1n[nH]c2ccc(-c3ccnc4[nH]c(-c5cccc(S(=O)(=O)N6CCOCC6)c5)cc34)cc12` [Compound 5aa], the inhibition constant Ki at IKKα came out at 25 nM; at IKKβ (read-out: Ki Values IKKβ), 149 nM.

Consider `CCOc1ccccc1-c1cc2c(-c3ccc4[nH]nc(N)c4c3)ccnc2[nH]1` [Compound 5b], for which the Ki came to 8 nM at IKKα and 86 nM at IKKβ (read-out: Ki Values IKKβ).

As for `Nc1cccc(-c2cc3c(-c4ccc5[nH]nc(N)c5c4)ccnc3[nH]2)c1` [Compound 5c], the Ki on IKKα was 5 nM; on IKKβ (read-out: Ki Values IKKβ), 28 nM.

As to `Nc1n[nH]c2ccc(-c3ccnc4[nH]c(-c5cccc(O)c5)cc34)cc12` [Compound 5d], the Ki was found to be 5 nM on IKKα and 26 nM on IKKβ (read-out: Ki Values IKKβ).

In the case of `COc1cccc(-c2cc3c(-c4ccc5[nH]nc(N)c5c4)ccnc3[nH]2)c1` [Compound 5e], the figures for the Ki at IKKα and on IKKβ (read-out: Ki Values IKKβ) were 5 nM and 40 nM, respectively.

`Nc1n[nH]c2ccc(-c3ccnc4[nH]c(-c5cc(O)cc(F)c5)cc34)cc12` [Compound 5f]: the Ki was found to be 4 nM at IKKα and 42 nM on IKKβ (read-out: Ki Values IKKβ).

As for `COc1cc(F)cc(-c2cc3c(-c4ccc5[nH]nc(N)c5c4)ccnc3[nH]2)c1` [Compound 5g], the Ki at IKKα stood at 3 nM; on IKKβ (read-out: Ki Values IKKβ) it was 32 nM.

For `Nc1n[nH]c2ccc(-c3ccnc4[nH]c(-c5cccc(C(=O)O)c5)cc34)cc12` [Compound 5h], the Ki at IKKα is 8 nM; on IKKβ (read-out: Ki Values IKKβ) it was 168 nM.

Turning to `NC(=O)c1cccc(-c2cc3c(-c4ccc5[nH]nc(N)c5c4)ccnc3[nH]2)c1` [Compound 5i], the values for the Ki on IKKα and on IKKβ (read-out: Ki Values IKKβ) were 5 nM and 159 nM, respectively.

On to `CS(=O)(=O)Nc1cccc(-c2cc3c(-c4ccc5[nH]nc(N)c5c4)ccnc3[nH]2)c1` [Compound 5j], for which the Ki was 3 nM on IKKα and 109 nM on IKKβ (read-out: Ki Values IKKβ).

Turning to `CS(=O)(=O)c1cccc(-c2cc3c(-c4ccc5[nH]nc(N)c5c4)ccnc3[nH]2)c1` [Compound 5k], the values for the Ki at IKKα and on IKKβ (read-out: Ki Values IKKβ) were 3 nM and 36 nM, respectively.

`COCCC(=O)Nc1cccc(-c2cc3c(-c4ccc5[nH]nc(N)c5c4)ccnc3[nH]2)c1` [Compound 5l]: the Ki at IKKα was 6 nM; on IKKβ (read-out: Ki Values IKKβ), 25 nM.

Turning to `COCCNC(=O)c1cccc(-c2cc3c(-c4ccc5[nH]nc(N)c5c4)ccnc3[nH]2)c1` [Compound 5m], the Ki at IKKα is 15 nM; at IKKβ (read-out: Ki Values IKKβ), 107 nM.

Regarding `Nc1n[nH]c2ccc(-c3ccnc4[nH]c(-c5cccc(CNC6CCCC6)c5)cc34)cc12` [Compound 5n], the results for the Ki on IKKα and at IKKβ (read-out: Ki Values IKKβ) were 10 nM and 191 nM, respectively.

For `CC(C)COc1cccc(-c2cc3c(-c4ccc5[nH]nc(N)c5c4)ccnc3[nH]2)c1` [Compound 5o], the Ki is 19 nM at IKKα and 458 nM at IKKβ (read-out: Ki Values IKKβ).

`Nc1n[nH]c2ccc(-c3ccnc4[nH]c(-c5cccc(CNc6ccccc6)c5)cc34)cc12` [Compound 5p]: the Ki on IKKα is 35 nM; on IKKβ (read-out: Ki Values IKKβ) it was 470 nM.

Regarding `Nc1n[nH]c2ccc(-c3ccnc4[nH]c(-c5ccccc5OCc5ccccc5)cc34)cc12` [Compound 5q], the Ki was 57 nM on IKKα and 1060 nM on IKKβ (read-out: Ki Values IKKβ).

On to `Nc1n[nH]c2ccc(-c3ccnc4[nH]c(-c5ccc(OCc6ccccc6)cc5)cc34)cc12` [Compound 5s], for which the Ki turned out to be 16 nM on IKKα and 189 nM at IKKβ (read-out: Ki Values IKKβ).

`Cc1ccc(S(=O)(=O)Nc2cccc(-c3cc4c(-c5ccc6[nH]nc(N)c6c5)ccnc4[nH]3)c2)cc1` [Compound 5t]: the Ki on IKKα was 10 nM; on IKKβ (read-out: Ki Values IKKβ) it was 1050 nM.

Consider `Cc1ccc(S(=O)(=O)Nc2ccc(-c3cc4c(-c5ccc6[nH]nc(N)c6c5)ccnc4[nH]3)cc2)cc1` [Compound 5u], for which the values for the Ki at IKKα and at IKKβ (read-out: Ki Values IKKβ) were 4 nM and 67 nM, respectively.

`CN1CCN(C(=O)c2cccc(-c3cc4c(-c5ccc6[nH]nc(N)c6c5)ccnc4[nH]3)c2)CC1` [Compound 5v]: the figures for the Ki on IKKα and on IKKβ (read-out: Ki Values IKKβ) were 24 nM and 215 nM, respectively.

For `Nc1n[nH]c2ccc(-c3ccnc4[nH]c(-c5cccc(OCc6ccccn6)c5)cc34)cc12` [Compound 5w], the figures for the Ki at IKKα and at IKKβ (read-out: Ki Values IKKβ) were 16 nM and 402 nM, respectively.

For the molecule `Nc1n[nH]c2ccc(-c3ccnc4[nH]c(-c5cccc(OCC6CCOCC6)c5)cc34)cc12` [Compound 5x], the Ki was determined as 8 nM on IKKα and 122 nM on IKKβ (read-out: Ki Values IKKβ).

As to `Nc1n[nH]c2ccc(-c3ccnc4[nH]c(-c5cccc(OCCN6CCOCC6)c5)cc34)cc12` [Compound 5y], the Ki at IKKα is 9 nM; at IKKβ (read-out: Ki Values IKKβ), 29 nM.

As for `COc1ccc(COc2cccc(-c3cc4c(-c5ccc6[nH]nc(N)c6c5)ccnc4[nH]3)c2)cc1` [Compound 5z], the Ki on IKKα came out at 43 nM; on IKKβ (read-out: Ki Values IKKβ), 166 nM.

In the case of `Nc1n[nH]c2ccc(-c3ccnc4[nH]c(-c5cc(F)cc(OCc6ccccc6)c5)cc34)cc12` [Compound 6a], the Ki was found to be 59 nM on IKKα and 5030 nM on IKKβ (read-out: Ki Values IKKβ).

In the case of `COCCOCc1cc(OCc2ccccc2)cc(-c2cc3c(-c4ccc5[nH]nc(N)c5c4)ccnc3[nH]2)c1` [Compound 6b], in the series “Turbidimetric solubility”, the solubility amounted to 3.75 µM (≈ 1.95 µg/mL). In addition, the results for the Ki at IKKα and at IKKβ (read-out: Ki Values IKKβ) were 29 nM and 1210 nM, respectively.

`COCCNc1cc(OCc2ccccc2)cc(-c2cc3c(-c4ccc5[nH]nc(N)c5c4)ccnc3[nH]2)c1` [Compound 6c] had a solubility in the series “Turbidimetric solubility” of 2 µM (≈ 1.01 µg/mL). Also, the figures for the Ki on IKKα and on IKKβ (Ki Values IKKβ) were 26 nM and 1530 nM, respectively.

Consider `Nc1n[nH]c2ccc(-c3ccnc4[nH]c(-c5ccc(OCc6ccccc6)nc5)cc34)cc12` [Compound 6d], for which the Ki is 12 nM at IKKα and 22 nM on IKKβ (read-out: Ki Values IKKβ).

`Nc1n[nH]c2ccc(-c3ccnc4[nH]c(-c5cncc(OCc6ccccc6)c5)cc34)cc12` [Compound 6e] returned a solubility in “Turbidimetric solubility” of 6.5 µM (≈ 2.81 µg/mL). The Ki on IKKα is 21 nM; at IKKβ (read-out: Ki Values IKKβ), 1550 nM.

On to `Nc1n[nH]c2ccc(-c3ccnc4[nH]c(-c5cc(F)nc(SCc6ccccc6)c5)cc34)cc12` [Compound 6i], for which the Ki stood at 127 nM at IKKα and 3000 nM on IKKβ (read-out: Ki Values IKKβ).

Take `Nc1n[nH]c2ccc(-c3ccnc4[nH]c(-c5ccnc(OCCc6ccccc6)c5)cc34)cc12` [Compound 6l]: the Ki turned out to be 42 nM on IKKα and 1600 nM on IKKβ (read-out: Ki Values IKKβ).

Source of the values: paper PMC11314561, “Design and Synthesis of Novel Aminoindazole-pyrrolo[2,3-b]pyridine Inhibitors of IKKα That Selectively Perturb Cellular Non-Canonical NF-κB Signalling” (Molecules, 2024).
